In paper PMC10002984, “Dual PTP1B/TC-PTP Inhibitors: Biological Evaluation of 3-(Hydroxymethyl)cinnoline-4(1H)-Ones” (International Journal of Molecular Sciences, 2023):
Marks after values point to notes of the source that are not given here.

Legend:
[1] = tested on: male rats with HFD-induced obesity; assay: Blood glucose, insulin and leptin levels and insulin resistance index in obese rats; format: in vivo, male Wistar rats; settings: for Glucose, After / Insulin, After / Leptin, After / Glucose, Before / Insulin, Before / Leptin, Before: blood, M ± SEM, n = 5; for Glucose, After / Insulin, After / Leptin, After / IR (insulin resistance index), After: after five-day i.p. treatment, 7 mg/kg (1, 2), 8 mg/kg (3), 10 mg/kg (4); for Glucose, Before / Insulin, Before / Leptin, Before / IR (insulin resistance index), Before: before treatment (baseline); for IR (insulin resistance index), After / IR (insulin resistance index), Before: product of blood glucose and insulin concentrations
Description: (§1) Further, six groups were formed: control (Con, n = 10), obesity (Ob, n = 10), obese rats with five-day treatment with compounds 1 (Ob + 1, n = 5), 2 (Ob + 2, n = 5), 3 (Ob + 3, n = 10), and 4 (Ob + 4, n = 10). All compounds were administered in DMSO (300 µL) at a daily dose of 7 mg/kg (1 and 2), 8 mg/kg (3), and 10 mg/kg (4) (i.p.), based on the results of the preliminary experiments. The used doses of compounds 1–4, in terms of the number of moles of each compound per kg of animal body weight, were equivalent. Control and obese rats received DMSO in the same volumes (300 µL), instead of the tested compounds. During the five days of the experiment, all animals were transferred to standard food and had free access to food and drinking water. […] The test was carried out on the morning of the next day after the last (fifth) injection of the compounds or DMSO, after a 10 h fast. The rest of the animals (n = 5 in each group) were anesthetized and decapitated on the last day of the experiment. The blood and liver samples were taken to measure blood glucose and hormone levels and gene expression in the liver.
The glucose levels in the blood obtained from the tail vein were measured using a glucometer (Life Scan Johnson & Johnson, Denmark) and the test strips “One Touch Ultra” (USA). The levels of insulin and leptin in rat serum were estimated with the “Rat Insulin ELISA” (Mercodia AB, Uppsala, Sweden) and “ELISA for Leptin, Rat” (Cloud-Clone Corporation, Houston, TX, USA) kits. The GTT was carried out using a single injection of glucose (2 g/kg, i.p.) after 10 h of fasting, as described earlier. The blood glucose levels were measured before (0 min) and 15, 30, 60, and 120 min after the glucose load.

TCPTP gene = assay: Gene expression in the liver of obese rats (qPCR), TCPTP gene; format: in vivo, rat; settings: five-day treatment, vs Ob group
Description: as §1
The total RNA was isolated from the liver samples of rats using the “ExtractRNA Reagent” (Evrogen, Moscow, Russia), and the samples containing 1 μg of RNA were transcribed to cDNA using the random oligodeoxynucleotide primers and the “MMLV RT kit” (Evrogen, Russia). The amplification procedure was carried out in the mixture containing 10 ng of reverse transcribed product, 0.4 μM of the forward and reverse primers, and the “qPCRmix-HS SYBR + LowROX kit” (Evrogen, Russia). The amplified signals were detected using the “Applied Biosystems® 7500 Real-Time PCR System” (Life Technologies, Carlsbad, CA, USA, Thermo Fisher Scientific Inc., USA). The primers that were used to assess the expression of genes encoding the phosphatase PTP1B, TC-PTP, and SHP1 and the insulin and leptin receptors are presented in Table 4. The obtained data were calculated with the delta–delta Ct method and expressed as a fold expression, relative to the corresponding control. […]

O=c1c(CO)n[nH]c2ccccc12 [Compound 1]
Glucose, After [1]: 5.74 ± 0.07 ^a mM
Insulin, After [1]: 1.11 ± 0.14 ^a ng/mL
Leptin, After [1]: 1.72 ± 0.24 ^b,c ng/mL
Glucose, Before [1]: 5.94 ± 0.22 ^a mM
Insulin, Before [1]: 1.57 ± 0.16 ^a ng/mL
Leptin, Before [1]: 3.06 ± 0.40 ^a ng/mL
IR (insulin resistance index), After [1]: 6.32 ± 0.77 ^a arb.Units
IR (insulin resistance index), Before [1]: 9.46 ± 1.31 ^a arb.Units
expression of the TCPTP gene in the liver (TCPTP gene): significant difference to the Ob group

O=c1c(CO)n[nH]c2ccc(Cl)cc12 [Compound 3, 6-Chloro-3-(hydroxymethyl)cinnolin-4(1H)-one]
Glucose, After [1]: 5.36 ± 0.31 ^a mM
Insulin, After [1]: 0.93 ± 0.13 ^b,c ng/mL
Leptin, After [1]: 1.52 ± 0.21 ^b,c ng/mL
Glucose, Before [1]: 5.80 ± 0.31 ^a mM
Insulin, Before [1]: 1.51 ± 0.18 ^a ng/mL
Leptin, Before [1]: 2.93 ± 0.42 ^a ng/mL
insulin resistance index compared to the Ob group ([1]; five-day treatment, 3 8 mg/kg/day): significantly reduced
IR (insulin resistance index), After [1]: 5.12 ± 0.97 ^b arb.Units
IR (insulin resistance index), Before [1]: 8.96 ± 1.46 ^a arb.Units
expression of the TCPTP gene in the liver (TCPTP gene): significant difference to the Ob group

O=c1c(CO)n[nH]c2ccc(Br)cc12 [Compound 4, 6-Bromo-3-(hydroxymethyl)cinnolin-4(1H)-one]
Glucose, After [1]: 5.24 ± 0.25 ^a mM
Insulin, After [1]: 1.06 ± 0.13 ^a,c ng/mL
Leptin, After [1]: 1.90 ± 0.16 ^a,b,c ng/mL
Glucose, Before [1]: 5.72 ± 0.30 ^a mM
Insulin, Before [1]: 1.65 ± 0.18 ^a ng/mL
Leptin, Before [1]: 3.17 ± 0.25 ^a ng/mL
IR (insulin resistance index), After [1]: 5.61 ± 0.89 ^a arb.Units
IR (insulin resistance index), Before [1]: 9.63 ± 1.57 ^a arb.Units
expression of the TCPTP gene in the liver (TCPTP gene): significant difference to the Ob group
